How the values were obtained:
[1] = basic structure compared with aniline; cited from earlier work
[2] = Measurement of oxidation induction time (OIT) by DSC; type: physicochemical; details: with liquid polyisoprene LIR-50, isothermal 180° C., switch from N2 to O2 atmosphere 50 mL/min, DSC peak; measuring accuracy ± 10 min
Description: The compound of formula II) was investigated under laboratory conditions for its potential protective effect as an aging stabilizer by measurement of the oxidation induction time.
To this end the compounds of formula II) and 6-PPD in each case together with a polymer (liquid synthetic polyisoprene (IR), LIR-50, Kuraray, weight average molecular weight distribution Mw=54 000 g/mol, glass transition temperature Tg=−63° C.) were heated at constant temperature (180° C.) until onset of oxidation (start temperature 35° C., heating to 170° C. at a heating rate of 20 K/min (kelvin per minute), heating to 180° C. at a heating rate of 1 K/min; purge gas: nitrogen (N2), volume flow 50 mL/min).
The specimen was isothermally maintained at 180° C. under an N2 atmosphere and the atmosphere was then switched to an O2 atmosphere (volume flow 50 mL/min).
Oxidation was determined via a peak using DSC (differential scanning calorimetry).
The time in minutes to oxidation was measured.

Row | Compound | Genotoxicity / mutagenicity according to safety data sheet [1] | Time to oxidation (oxidation induction time) [2]
1 | acridinone | neither genotoxic nor mutagenic | 
2 | CC(C)CC(C)Nc1ccc(Nc2ccccc2)cc1 (stereo not drawn) [6-PPD, N-(1,3-dimethylbutyl)-N′-phenyl-p-phenylenediamine] |  | 116 ± 10 min
3 | CC(C)CC(C)Nc1ccc2[nH]c3ccccc3c(=O)c2c1 (stereo not drawn) [Compound of formula II), 2-(1,3-dimethylbutylamino)-acridine-9(10H)-one] |  | 259 ± 10 min

Reference: patent US20250100972A1, “COMPOUND, RUBBER BLEND CONTAINING THE COMPOUND, VEHICLE TIRE COMPRISING THE RUBBER BLEND IN AT LEAST ONE COMPONENT, PROCESS FOR PRODUCING THE COMPOUND, AND USE OF THE COMPOUND AS AN AGEING PROTECTANT AND/OR ANTIOZONANT AND/OR DYE” (Continental Reifen Deutschland GmbH, priority 2021, published 2025)
